Test results reported in ChEMBL document CHEMBL5143569 (Eur J Med Chem, 2022).
pIC50, pKi: −log10 of the molar value.

What was measured:
[1] = biological target: Tyrosine-protein phosphatase non-receptor type 6 (Homo sapiens, UniProt P29350); assay: Inhibition of wild-type SHP1 (2 to 595 residues) (unknown origin) using DiFMUP as substrate and measured by biochemical assay
[2] = biological target: T1, Tyrosine-protein phosphatase non-receptor type 1 (Homo sapiens, UniProt P18031); assay: Inhibition of wild-type PTP1B (2 to 435 residues) (unknown origin) using DiFMUP as substrate and measured by biochemical assay
T1 sequence (P18031 whole entry): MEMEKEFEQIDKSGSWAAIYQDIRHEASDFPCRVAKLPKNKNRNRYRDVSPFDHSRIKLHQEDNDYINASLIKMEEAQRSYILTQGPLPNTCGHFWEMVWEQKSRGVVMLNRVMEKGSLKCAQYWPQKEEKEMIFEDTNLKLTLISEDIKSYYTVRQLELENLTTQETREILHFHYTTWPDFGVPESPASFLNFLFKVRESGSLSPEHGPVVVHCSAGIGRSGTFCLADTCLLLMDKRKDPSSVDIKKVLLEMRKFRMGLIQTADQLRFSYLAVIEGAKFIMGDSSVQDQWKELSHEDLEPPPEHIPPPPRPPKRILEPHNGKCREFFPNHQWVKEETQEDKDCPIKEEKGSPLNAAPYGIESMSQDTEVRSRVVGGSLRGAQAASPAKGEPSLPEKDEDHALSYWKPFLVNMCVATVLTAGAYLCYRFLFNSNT

[3] = Inhibition of SHP2 E76A mutant (unknown origin); parameters: species or system Homo sapiens
[4] = biological target: T2, Tyrosine-protein phosphatase non-receptor type 11 (Homo sapiens, UniProt Q06124)
T2 sequence (Q06124 whole entry): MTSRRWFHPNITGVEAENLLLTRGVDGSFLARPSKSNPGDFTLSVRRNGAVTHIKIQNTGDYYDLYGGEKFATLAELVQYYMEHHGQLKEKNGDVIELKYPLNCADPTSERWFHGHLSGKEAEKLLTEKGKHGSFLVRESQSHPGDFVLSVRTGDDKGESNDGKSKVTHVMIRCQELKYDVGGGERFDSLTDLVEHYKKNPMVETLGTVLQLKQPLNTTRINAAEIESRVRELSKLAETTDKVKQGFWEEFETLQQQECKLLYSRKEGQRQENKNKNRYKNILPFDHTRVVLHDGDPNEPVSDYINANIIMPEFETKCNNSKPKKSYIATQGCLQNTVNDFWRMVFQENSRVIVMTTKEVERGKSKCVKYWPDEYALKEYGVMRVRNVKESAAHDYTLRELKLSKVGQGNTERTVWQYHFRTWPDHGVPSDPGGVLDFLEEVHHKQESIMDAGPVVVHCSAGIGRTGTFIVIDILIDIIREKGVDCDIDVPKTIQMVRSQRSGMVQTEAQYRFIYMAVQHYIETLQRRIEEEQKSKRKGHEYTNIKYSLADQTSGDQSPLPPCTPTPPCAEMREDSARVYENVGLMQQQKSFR

[5] = biological target: T2, Tyrosine-protein phosphatase non-receptor type 11; remark: listed apart in the source
Description: Allosteric inhibition of recombinant human SHP2 PTP domain (237 to 535 residues) using DiFMUP as substrate preincubated for 30 mins and followed by substrate addition and measured by microplate reader method

[6] = biological target: T2, Tyrosine-protein phosphatase non-receptor type 11; assay: Reversible inhibition of wild-type human SHP2 using DiFMUP as substrate and measured by jump dilution assay

Chain of Tyrosine-protein phosphatase non-receptor type 6 (P29350 whole entry, the tested form may be a part): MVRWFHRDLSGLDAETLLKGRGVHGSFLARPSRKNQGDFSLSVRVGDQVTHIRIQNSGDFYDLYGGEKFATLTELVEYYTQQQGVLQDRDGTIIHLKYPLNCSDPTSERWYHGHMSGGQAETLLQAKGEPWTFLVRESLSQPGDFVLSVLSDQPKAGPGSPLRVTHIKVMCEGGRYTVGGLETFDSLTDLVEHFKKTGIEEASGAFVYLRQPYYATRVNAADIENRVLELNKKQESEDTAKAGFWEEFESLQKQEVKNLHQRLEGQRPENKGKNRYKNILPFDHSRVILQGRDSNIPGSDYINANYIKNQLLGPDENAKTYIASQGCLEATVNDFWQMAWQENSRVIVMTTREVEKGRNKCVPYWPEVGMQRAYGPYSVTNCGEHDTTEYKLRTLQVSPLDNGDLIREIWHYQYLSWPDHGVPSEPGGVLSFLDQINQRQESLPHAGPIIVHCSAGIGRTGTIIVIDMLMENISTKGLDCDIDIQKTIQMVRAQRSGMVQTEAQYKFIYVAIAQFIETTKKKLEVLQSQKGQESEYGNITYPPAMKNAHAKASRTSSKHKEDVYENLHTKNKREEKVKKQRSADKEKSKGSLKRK

SMILES | pIC50 [4] | pIC50 [5] | other results
CC1(N)CCN(c2cnc(-c3cccc(Cl)c3Cl)c(N)n2)CC1 | – | – | pIC50 [1]: < 4.00; pIC50 [2]: < 4.00
CC1(N)CCN(c2nc(-c3ccc4cc(Br)ccc4c3)cs2)CC1 | – | – | pIC50 [3]: 6.15
CC1(N)CCN(c2cnc(Sc3ccccc3Cl)c(N)n2)CC1 | 7.01 | < 5.00 | –
CC1(N)CCN(c2cnc(Sc3cccc(Cl)c3Cl)c(N)n2)CC1 | 7.60 | < 5.00 | –
CC1(CN)CCN(c2cnc(Sc3cccc(Cl)c3Cl)c(N)n2)CC1 | – | < 5.00 | pKi [6]: 7.66; pIC50 [1]: < 4.00; pIC50 [2]: < 4.00
COc1cccc(-c2nnc3n(Cc4ccc(C(=O)N5CCC[C@H]5C(=O)O)cc4Cl)c(=O)c4ccccc4n23)c1O | 4.22 | – | –
CC1(N)CCN(c2cnc(Sc3cccc4ccccc34)c(N)n2)CC1 | 6.76 | < 5.00 | –
CC1(N)CCN(c2cnc(SC3CCCCC3)c(N)n2)CC1 | 5.02 | < 5.00 | –
CC1(O)CCN(c2cnc(-c3cccc(Cl)c3Cl)c(N)n2)CC1 | 4.86 | < 5.00 | –
Nc1nc(N2CC[C@H](N)C2)cnc1-c1cccc(Cl)c1Cl | 5.69 | < 5.00 | –
CN1CCN(c2cnc(-c3cccc(Cl)c3Cl)c(N)n2)CC1 | 6.16 | < 5.00 | –
CC1(N)CCN(c2cnc(Sc3cccc(Cl)c3)c(N)n2)CC1 | 6.13 | < 5.00 | –
NCC1CCN(c2cnc(Sc3cccc(Cl)c3Cl)c(N)n2)CC1 | 6.96 | < 5.00 | –
CC1(N)CCN(c2cnc(-c3cccc(F)c3F)c(N)n2)CC1 | 5.24 | < 5.00 | –
CC1(N)CCN(c2cnc(Sc3ccc4ccccc4c3)c(N)n2)CC1 | 6.01 | < 5.00 | –
CC1(N)CCN(c2cnc(Sc3ccccc3C(F)(F)F)c(N)n2)CC1 | 6.75 | < 5.00 | –

SMILES | pIC50 [4] | pIC50 [5] | other results
CC1(N)CCN(c2cnc(Sc3ccccc3)c(N)n2)CC1 | 6.09 | < 5.00 | –
COc1ccccc1Sc1ncc(N2CCC(C)(N)CC2)nc1N | 7.10 | < 5.00 | –
Cc1ccccc1Sc1ncc(N2CCC(C)(N)CC2)nc1N | 5.75 | < 5.00 | –
CC1(N)CCN(c2cnc(-c3ccc(C#N)cc3)c(N)n2)CC1 | 4.83 | < 5.00 | –
Cc1ccc(-c2ncc(N3CCC(C)(N)CC3)nc2N)cc1 | 5.04 | < 5.00 | –
CC1(N)CCN(c2cnc(Sc3ccccc3F)c(N)n2)CC1 | 6.32 | < 5.00 | –
Nc1nc(N2CCNCC2)cnc1-c1cccc(Cl)c1Cl | 6.15 | < 5.00 | –
CC1(N)CCN(c2cnc(Sc3ccccc3Br)c(N)n2)CC1 | 7.23 | < 5.00 | –
Nc1nc(N2CCC(N)CC2)cnc1-c1cccc(Cl)c1Cl | 5.56 | < 5.00 | –
Nc1nc(N2CCC(O)CC2)cnc1-c1cccc(Cl)c1Cl | 5.21 | < 5.00 | –
CNC1CCN(c2cnc(-c3cccc(Cl)c3Cl)c(N)n2)CC1 | 5.79 | < 5.00 | –
NCCC1CCN(c2cnc(-c3cccc(Cl)c3Cl)c(N)n2)CC1 | 6.07 | < 5.00 | –
CC1(N)CCN(c2cnc(SCc3ccccc3)c(N)n2)CC1 | 4.97 | < 5.00 | –
CC1(N)CCN(c2cnc(Sc3ccc(Cl)cc3)c(N)n2)CC1 | 5.42 | < 5.00 | –
CC1(N)CCN(c2cnc(SCc3ccccc3Cl)c(N)n2)CC1 | 5.25 | < 5.00 | –
CN(CCN)c1cnc(-c2cccc(Cl)c2Cl)c(N)n1 | 5.01 | < 5.00 | –
